# Measured values as given in patent publication US10905683B2, “Compositions and uses of amidine derivatives” (BIOCRYST PHARMACEUTICALS, INC., priority 2014, dated 2021).
# Where two headings read alike, the source gives them in different places.
# Tests used:
# [1] = pH-solubility curve in citrate-phosphate buffers; format: physicochemical; settings: free base, FIG. 1
# Source text: A pH-solubility curve was generated for the compound of Example 1 in citrate-phosphate buffers to evaluate the effect of pH on solubility of the free base material.
# [2] = Phase 1 Part 1, single ascending oral dose pharmacokinetics and food effect; format: in vivo, human; settings: for Tmax: median
# Protocol: A two-part, Phase 1, double-blind, placebo-controlled study of the compound of Example 1 was conducted in healthy subjects. Part 1 of the study assessed the safety, tolerability and the pharmacokinetic (PK) and pharmacodynamic (PD) properties of the compound of Example 1 following a single ascending dose. Subjects were enrolled in five sequential cohorts and received the compound of Example 1 (50 mg, 125 mg, 250 mg, 500 mg or 1000 mg; n=6/cohort) or placebo (n=2/cohort) under fasting conditions. To enable a food-effect assessment on exposure, subjects enrolled in Cohort 4 (500 mg or placebo) subsequently received a second dose of the compound of Example 1 following a high-fat breakfast.
# A summary of the pharmacokinetic parameters for fasting, single oral doses of 50 to 1000 mg of the compound of Example 1 (Part 1) is presented in Table 16.
# Compound concentrations then declined biphasically and were quantifiable through 9 hours postdose in Cohort 1 (50 mg) and 24 hours postdose in Cohorts 4 and 5 (500 and 1000 mg).
# [3] = Relative bioavailability crossover study, soft v. hard gelatin capsules and food effect; format: in vivo, human
# Protocol: A single dose, randomized, 3-period crossover study was conducted to evaluate the relative bioavailability of the compound of Example 1 formulated as a soft gelatin capsule to the compound of Example 1 formulated as a hard gelatin capsule and to determine the effect of food on the pharmacokinetics of the compound of Example 1. The goals of this study were to ascertain the relative bioavailability and pharmacokinetics of the compound of Example 1 in soft gelatin capsules to hard gelatin capsules when administered following an overnight fast in healthy subjects. In addition, the study estimated the effect of a high-fat meal upon the pharmacokinetics of the compound of Example 1 following single dose administration of 400 mg of the compound of Example 1 in a soft gelatin capsules to healthy subjects. Hard and soft gelatin capsules were prepared as in Example 8 and 9, respectively, below.
# The study was a single-dose, open-label, randomized, 3-way cross-over design. During each treatment period, eighteen subjects will receive a single dose of one of the following treatments in a randomized sequence:
# Treatment A: BCX4161 400 mg as 4×100 mg hard gelatin capsules following an overnight fast
# Treatment B: BCX4161 400 mg as 4×100 mg soft gelatin capsules following an overnight fast
# Treatment C: BCX4161 400 mg as 4×100 mg soft gelatin capsules following a high fat meal […]
# [4] = Stability and photostability of formulations
# Protocol: This is a standard practice in the pharmaceutical industry in order to accelerate any chemical reactions that may occur due to environmental conditions (temperature, oxygen, light). […] If the stability data from the stress studies indicates a potential stability challenge, then further studies are required to identify the stability issue and resolve it.
# Initial stability studies were conducted under accelerated conditions. […] Several antioxidants were identified for study. These antioxidants are pharmaceutically acceptable for use in human oral dosage forms and are compatible with the gelatin composition in a soft gelatin capsule.
# Stability studies were performed with formulations that were protected from light and formulations exposed to light.
# plasma kallikrein = biological target: T1, plasma kallikrein (Homo sapiens, UniProt P03952); assay: Plasma kallikrein activity in subject samples, contact activation assay with fluorogenic substrate; format: in vivo
# T1 construct: normal levels of C1INH present in healthy subject plasma samples; from tissue; host or cells: plasma samples of healthy human subjects
# T1 sequence (P03952 391-638 limits assumed): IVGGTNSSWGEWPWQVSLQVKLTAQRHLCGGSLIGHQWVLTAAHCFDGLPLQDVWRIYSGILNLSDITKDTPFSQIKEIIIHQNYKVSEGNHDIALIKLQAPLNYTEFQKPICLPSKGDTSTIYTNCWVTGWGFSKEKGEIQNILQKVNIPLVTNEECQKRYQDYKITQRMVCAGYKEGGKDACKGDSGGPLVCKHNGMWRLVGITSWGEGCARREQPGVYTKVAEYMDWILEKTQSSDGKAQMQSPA
# T1 sequence (P03952 20-390 partner limits assumed): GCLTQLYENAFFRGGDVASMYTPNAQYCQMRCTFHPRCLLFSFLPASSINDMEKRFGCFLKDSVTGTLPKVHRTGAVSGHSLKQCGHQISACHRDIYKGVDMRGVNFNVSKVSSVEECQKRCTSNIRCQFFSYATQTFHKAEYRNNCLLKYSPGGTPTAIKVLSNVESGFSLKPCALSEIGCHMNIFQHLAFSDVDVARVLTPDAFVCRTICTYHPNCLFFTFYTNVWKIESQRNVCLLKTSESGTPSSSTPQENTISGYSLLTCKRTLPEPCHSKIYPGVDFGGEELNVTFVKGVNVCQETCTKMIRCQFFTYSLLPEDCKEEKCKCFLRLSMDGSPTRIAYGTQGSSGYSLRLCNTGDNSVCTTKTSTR
# Protocol: Plasma kallikrein activity was assessed in subject samples with an exploratory contact activation assay using a fluorogenic artificial substrate for kallikrein. In this assay, the contact pathway is activated by addition of ellagic acid, and amidolytic activity is measured. Results are expressed as percent inhibition compared to subject baseline samples and reflect inhibition additional to that resulting from the activity of normal levels of C1INH present in healthy subject plasma samples. Analysis of plasma kallikrein activity following single doses of the compound of Example 1 was performed through 12 hours postdose. […] The time course of inhibition generally followed the plasma pharmacokinetics of the compound. The greatest effect was seen around the time of Cmax. Plasma kallikrein inhibition largely returned to baseline at 12 hours postdose, when plasma concentrations of the compound of Example 1 were low (generally <10 ng/mL).
# Plasma kallikrein activity profiles were measured in Part 2 subjects on day 7 of dosing and the results were expressed as percent inhibition compared to the activity present in the Day 1 predose plasma sample. […] Kallikrein inhibition was observed through the last dosing interval on day 7 compared to placebo (p<0.0001).
# [5] = 50 mg single oral dose, fasting, GM
# [6] = 125 mg single oral dose, fasting, GM
# [7] = 250 mg single oral dose, fasting, GM
# [8] = 500 mg single oral dose, FASTED, GM
# [9] = human, plasma, po, 50 mg, 50 mg single oral dose, fasting, GM
# [10] = human, plasma, po, 125 mg, 125 mg single oral dose, fasting, GM
# [11] = human, plasma, po, 250 mg, 250 mg single oral dose, fasting, GM
# [12] = human, plasma, po, 500 mg, 500 mg single oral dose, FASTED, GM
# [13] = human, plasma, po, 500 mg, 500 mg single oral dose, FED (high-fat breakfast), GM
# [14] = human, plasma, po, 1000 mg, 1000 mg single oral dose, fasting, GM
smiles,measurement,setting,value
"C=Cc1cc(C(=O)Nc2ccc(C(=N)N)cc2)c(-c2ccc(C(=O)NCC3CC3)nc2C(=O)O)cc1OC [Example 1, 3-[2-(4-carbamimidoyl-phenylcarbamoyl)-5-methoxy-4-vinyl-phenyl]-6-(cyclopropylmethyl-carbamoyl)-pyridine-2-carboxylic acid]",effect of pH on aqueous solubility,[1],not a significant effect
same,DN AUC0-inf,[2]; [5],1.94 ng·h/mL/mg
same,DN Cmax,[2]; [5],0.528 ng/mL/mg
same,DN AUC0-inf,[2]; [6],1.58 ng·h/mL/mg
same,DN Cmax,[2]; [6],0.432 ng/mL/mg
same,DN AUC0-inf,[2]; [7],1.41 ng·h/mL/mg
same,DN Cmax,[2]; [7],0.344 ng/mL/mg
same,reduction of AUCinf with food v. fasting,[2]; 500 mg single oral dose,23%
same,reduction of AUClast with food v. fasting,[2]; 500 mg single oral dose,20%
same,reduction of geometric mean Cmax after a high-fat breakfast v. fasting,[2]; 500 mg single oral dose,47%
same,DN AUC0-inf,[2]; [8],1.60 ng·h/mL/mg
same,DN Cmax,[2]; [8],0.311 ng/mL/mg
same,DN Cmax,"[2]; 1000 mg single oral dose, fasting, GM",0.193 ng/mL/mg
same,DN AUC0-inf,"[2]; 1000 mg single oral dose, fasting, GM, n = 5",0.983 ng·h/mL/mg
same,half-life,"[2]; human, plasma, oral, 50 mg, Cohort 1 (50 mg single dose), read-out: terminal half-life (converted)",~3 h
same,half-life,"[2]; human, plasma, oral, 500 mg, Cohort 4 (500 mg single dose), read-out: terminal half-life (converted)",~15 h
same,concentration at 12 h,"[2]; human, plasma, oral, single doses, read-out: plasma concentrations at 12 hours postdose",< 0.01 µg/mL
same,AUC(0-inf),[2]; [9],0.0968 µg·h/mL
same,AUC(0-t),[2]; [9],0.0896 µg·h/mL
same,Cmax,[2]; [9],0.0264 µg/mL
same,half-life,"[2]; human, plasma, po, 50 mg, 50 mg single oral dose, fasting, GM, read-out: t1/2 (converted)",2.98 h
same,Tmax,"[2]; human, plasma, po, 50 mg, 50 mg single oral dose, fasting",1 h
same,AUC(0-inf),[2]; [10],0.197 µg·h/mL
same,AUC(0-t),[2]; [10],0.188 µg·h/mL
same,Cmax,[2]; [10],0.054 µg/mL
same,half-life,"[2]; human, plasma, po, 125 mg, 125 mg single oral dose, fasting, GM, read-out: t1/2 (converted)",4.66 h
same,Tmax,"[2]; human, plasma, po, 125 mg, 125 mg single oral dose, fasting",2 h
same,AUC(0-inf),[2]; [11],0.353 µg·h/mL
same,AUC(0-t),[2]; [11],0.336 µg·h/mL
same,Cmax,[2]; [11],0.0859 µg/mL
same,half-life,"[2]; human, plasma, po, 250 mg, 250 mg single oral dose, fasting, GM, read-out: t1/2 (converted)",6.5 h
same,Tmax,"[2]; human, plasma, po, 250 mg, 250 mg single oral dose, fasting",2 h
same,AUC(0-inf),[2]; [12],0.802 µg·h/mL
same,AUC(0-t),[2]; [12],0.76 µg·h/mL
same,Cmax,[2]; [12],0.155 µg/mL
same,half-life,"[2]; human, plasma, po, 500 mg, 500 mg single oral dose, FASTED, GM, read-out: t1/2 (converted)",15.4 h
same,Tmax,"[2]; human, plasma, po, 500 mg, 500 mg single oral dose, FASTED",2 h
same,AUC(0-t),[2]; [13],0.586 µg·h/mL
same,Cmax,[2]; [13],0.0821 µg/mL
same,AUC(0-inf),"[2]; human, plasma, po, 500 mg, 500 mg single oral dose, FED (high-fat breakfast), GM, n = 5",0.642 µg·h/mL
same,half-life,"[2]; human, plasma, po, 500 mg, 500 mg single oral dose, FED (high-fat breakfast), GM, n = 5, sampling to 96 hours, read-out: t1/2 (converted)",18.9 h
same,Tmax,"[2]; human, plasma, po, 500 mg, 500 mg single oral dose, FED (high-fat breakfast)",2.5 h
same,AUC(0-t),[2]; [14],0.981 µg·h/mL
same,Cmax,[2]; [14],0.193 µg/mL
same,AUC(0-inf),"[2]; human, plasma, po, 1000 mg, 1000 mg single oral dose, fasting, GM, n = 5",0.983 µg·h/mL
same,half-life,"[2]; human, plasma, po, 1000 mg, 1000 mg single oral dose, fasting, GM, n = 5, sampling to 96 hours, read-out: t1/2 (converted)",12.3 h
same,Tmax,"[2]; human, plasma, po, 1000 mg, 1000 mg single oral dose, fasting",2 h
same,"geometric mean Cmax, soft gelatin capsules as compared to hard gelatin capsules","[3]; 400 mg single dose, fasting",approximately 80%
same,bioavailability,[3]; formulated in a soft gelatin capsule,good bioavailability
same,chemical stability under accelerated conditions,"[4]; combined with candidate formulations, exposed to light, oxygen and elevated temperatures",underwent degradation
same,photostability,[4]; exposed to ultraviolet (UV) or white (CW) light,demonstrated photodegradation
same,Kallikrein inhibition compared to Day 1 predose,"plasma kallikrein; beginning and end of the dosing interval on Day 7, two highest dose cohorts (400, 800 mg q8h), FIG. 11",30-40%
same,change of plasma kallikrein activity in comparison to placebo,plasma kallikrein; single doses of 50-250 mg,modest but real changes
